{"source": "patent US9474780B2", "about": "“GIP and GLP-1 co-agonist compounds” (Eli Lilly and Company, priority 2015, dated 2016)", "key": {"Human GCGR": {"biological_target": "Human GCGR (Homo sapiens, UniProt P47871)", "sequence (P47871 26-477)": "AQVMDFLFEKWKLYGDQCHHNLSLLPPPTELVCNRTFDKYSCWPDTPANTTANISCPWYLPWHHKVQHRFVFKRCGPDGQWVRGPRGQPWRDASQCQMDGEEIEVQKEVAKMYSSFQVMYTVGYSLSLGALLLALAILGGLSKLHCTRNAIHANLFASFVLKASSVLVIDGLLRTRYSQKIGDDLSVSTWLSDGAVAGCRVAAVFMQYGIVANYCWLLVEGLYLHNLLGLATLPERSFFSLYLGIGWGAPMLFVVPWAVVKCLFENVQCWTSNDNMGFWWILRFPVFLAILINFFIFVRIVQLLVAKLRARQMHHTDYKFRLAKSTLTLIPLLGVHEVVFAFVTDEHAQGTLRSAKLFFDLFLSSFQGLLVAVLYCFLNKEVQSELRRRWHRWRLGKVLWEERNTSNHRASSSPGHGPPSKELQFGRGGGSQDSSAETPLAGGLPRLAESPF", "test": "Functional hGCGR cAMP assay in HEK-293 clonal cells"}, "human GIP-R": {"biological_target": "T1, human GIP-R (Homo sapiens, UniProt P48546)", "T1 sequence (P48546 22-466)": "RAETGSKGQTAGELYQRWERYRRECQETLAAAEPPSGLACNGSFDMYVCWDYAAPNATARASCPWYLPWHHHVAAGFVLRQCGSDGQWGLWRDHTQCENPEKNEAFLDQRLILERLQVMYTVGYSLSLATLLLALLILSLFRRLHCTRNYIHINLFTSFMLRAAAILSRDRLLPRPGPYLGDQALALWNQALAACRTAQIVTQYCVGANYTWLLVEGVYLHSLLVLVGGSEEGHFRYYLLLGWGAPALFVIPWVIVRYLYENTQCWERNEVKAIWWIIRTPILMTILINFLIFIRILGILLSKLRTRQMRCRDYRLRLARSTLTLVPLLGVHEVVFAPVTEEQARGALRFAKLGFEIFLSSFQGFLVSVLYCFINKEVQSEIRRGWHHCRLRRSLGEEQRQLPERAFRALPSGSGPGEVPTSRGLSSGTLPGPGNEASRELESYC", "test": "Functional hGIP-R cAMP assay in HEK-293 clonal cells", "conditions": "HEK293, read-out: Human GIP-R Emax", "procedure": "(§1) After an incubation of 60 minutes at room temperature, the resulting increase in intracellular cAMP is quantitatively determined using the CisBio cAMP Dynamic 2 HTRF Assay Kit (Bedford, Mass.). Briefly, cAMP levels within the cell are detected by adding the cAMP-d2 conjugate in cell lysis buffer (20 μl) followed by the antibody anti-cAMP-Eu^3+-Cryptate, also in cell lysis buffer (20 μl). The resulting competitive assay is incubated for at least 60 minutes at room temperature, then detected using a PerkinElmer Envision® instrument with excitation at 320 nm and emission at 665 nm and 620 nm Envision units (emission at 665 nm/620 nm*10,000) are inversely proportional to the amount of cAMP present and are converted to nM cAMP per well using a cAMP standard curve. […] A relative EC50 value and percent top (Emax) is derived by non-linear regression analysis using the percent maximal response versus the concentration of the compound of the present invention, fitted to a four-parameter logistic equation."}, "[1]": {"test": "Pharmacokinetics in cynomolgus monkeys", "type": "in vivo", "conditions": "cynomolgus monkey, plasma", "description": "The compounds are administered by a single intravenous or subcutaneous dose (0.2 mg/kg) in 20 mM citrate buffer (pH 7.0) at a volume of 0.21 ml/kg. Blood is collected from each animal at 2, 4, 8, 12, 24, 48, 72, 96, 120, 144, 168, 204, 240, and 312 hours post-dosage. The plasma concentrations of compounds of the present invention are determined by a LC/MS method. Briefly, a compound of the present invention is extracted from 100% Monkey plasma sample (50 μl) diluted with 1×PBS (150 μl) and mixed with N-butanol (400 μl). Three distinct liquid layers are formed with the compound located in the top layer. A volume of 200 μl is transferred to a v-bottom 96-well plate, dried down using heated Nitrogen gas and reconstituted with 100 μl of 30% acetonitrile/0.1% formic acid. 20 μl of the reconstituted sample is injected onto a Supelco Analytical Discovery bio wide C5 3 μm column. The column effluent is directed into a Thermo Q-Exactive mass spectrometer for detection and quantitation."}, "[2]": {"test": "Plasma corticosterone in Sprague Dawley rats", "type": "in vivo, rat", "conditions": "for Corticosterone, Mean: 16 hours", "description": "Plasma corticosterone levels are evaluated using Sprague Dawley Rats (Harlan, Indianapolis), weighing approximately 220 g and acclimated for at least 72 hours before handling. The rats are then dosed with vehicle (20 mM citrate buffer, pH 7), semaglutide (10 nmol/kg), or compounds of the present invention at 3, 10 or 30 nmol/kg s.c. with 8 rats per dose group. The rats are decapitated 16 hours later. Blood is collected into EDTA tubes on ice, then centrifuged 5 minutes at 8000 RPM in a Eppendorf 5402 tabletop centrifuge. Plasma is stored at −80° C. until analysis.\nFor corticosterone analysis, corticosterone standards (Sigma, 27840) are prepared by serial dilutions in HPLC-grade methanol, H2O and the addition of 5% charcoal stripped rat serum (Bioreclamation, RATSRM-STRPD-HEV). Rat plasma samples are diluted with PBS, precipitated with cold methanol, incubated for 20 minutes at −20° C., and then centrifuged at 14,000 RPM with an Eppendorf 5417R at 4° C. Supernatants are extracted, evaporated under a stream of N2 gas, and reconstituted in MeOH/H2O (1:1) solution."}, "human GLP-1R": {"biological_target": "T2, human GLP-1R (Homo sapiens, UniProt P43220)", "T2 construct": "expressed in transfected cells; host or cells: 293HEK, Hygromycin-selected; crude plasma membranes", "T2 sequence (P43220 24-463)": "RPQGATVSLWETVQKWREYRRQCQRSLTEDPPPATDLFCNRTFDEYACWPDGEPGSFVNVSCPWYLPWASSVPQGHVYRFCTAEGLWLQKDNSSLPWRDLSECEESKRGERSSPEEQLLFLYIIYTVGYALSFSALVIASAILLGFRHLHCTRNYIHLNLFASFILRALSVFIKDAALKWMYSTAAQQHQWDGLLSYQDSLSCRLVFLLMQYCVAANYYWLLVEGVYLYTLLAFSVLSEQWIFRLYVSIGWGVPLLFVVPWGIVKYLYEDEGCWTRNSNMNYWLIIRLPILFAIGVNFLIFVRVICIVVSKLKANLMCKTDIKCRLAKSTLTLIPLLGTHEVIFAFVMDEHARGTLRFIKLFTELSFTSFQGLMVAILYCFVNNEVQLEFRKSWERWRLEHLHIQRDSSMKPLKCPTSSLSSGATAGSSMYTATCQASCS", "test": "Functional hGLP-1R cAMP assay in HEK-293 clonal cells", "type": "cell-based", "conditions": "HEK293; percent of maximal response of hGLP-1(7-36)NH2", "procedure": "as §1"}, "mouse islets": {"tested_on": "mouse islets", "test": "Mouse islet insulin secretion", "type": "cell-based", "conditions": "read-out: Mouse islet insulin secretion Mean ED50", "description": "To assess action of compounds of the present invention in a system representing physiological GLP-1R and GIP-R expression levels insulin secretion, compounds are tested for effects on insulin secretion from wild-type rodent islets.\nAfter common bile duct cannulation in male C57B1/6 mice (22-26 g) or male Sprague-Dawley rats (approx. 250 g), the pancreas is distended with Hank's buffer (3 ml for mice or 10 ml for rats, containing 2% BSA and 0.75 mg/ml Clzyme collagenase (VitaCyte). Subsequently, tissues are digested in Hank's buffer at 37° C. for 11-13 minutes (mice) or 14-16 minutes for rat pancreata. Purified islets (Histopaque-1100 gradient [Sigma-Aldrich], […] at 750× gravity) are cultured overnight in RPMI-1640 medium (Invitrogen) containing 10% FBS, 100 U/ml penicillin and 100 μg/ml streptomycin, and preconditioned by starvation in Earle's Balanced Salt Solution (EBSS) supplemented with 0.1% BSA and 2.8 mM glucose. Subsequently, islets are incubated in EBSS (Invitrogen) supplemented with 0.1% BSA, 2.8-11.2 mM glucose and increasing levels of compound (6 batches of 4 islets/condition). GLP-1(7-36)amide (30 nM) is used as a positive control. Insulin is measured over 90 minutes in supernatant using the MSD Insulin Assay (Meso Scale, Gaithersburg, Md.)."}}}
{"smiles": "CC[C@H](C)[C@H](NC(=O)[C@H](CC(C)C)NC(=O)[C@H](Cc1c[nH]c2ccccc12)NC(=O)[C@H](CCC(N)=O)NC(=O)[C@@H](NC(=O)[C@H](Cc1ccccc1)NC(=O)[C@H](C)NC(=O)[C@H](CCCCNC(=O)COCCOCCNC(=O)COCCOCCNC(=O)CC[C@H](NC(=O)CCCCCCCCCCCCCCCCCCC(=O)O)C(=O)O)NC(=O)[C@H](CCC(N)=O)NC(=O)[C@H](C)NC(=O)[C@@H](NC(=O)[C@H](CCCCN)NC(=O)[C@H](CC(=O)O)NC(=O)[C@H](CC(C)C)NC(=O)C(C)(C)NC(=O)[C@@H](NC(=O)[C@H](CO)NC(=O)[C@H](Cc1ccc(O)cc1)NC(=O)[C@H](CC(=O)O)NC(=O)[C@H](CO)NC(=O)[C@@H](NC(=O)[C@H](Cc1ccccc1)NC(=O)[C@@H](NC(=O)CNC(=O)[C@H](CCC(=O)O)NC(=O)C(C)(C)NC(=O)[C@@H](N)Cc1ccc(O)cc1)[C@@H](C)O)[C@@H](C)O)[C@@H](C)CC)[C@@H](C)CC)C(C)C)C(=O)N[C@@H](C)C(=O)NCC(=O)NCC(=O)N1CCC[C@H]1C(=O)N[C@@H](CO)C(=O)N[C@@H](CO)C(=O)NCC(=O)N[C@@H](C)C(=O)N1CCC[C@H]1C(=O)N1CCC[C@H]1C(=O)N1CCC[C@H]1C(=O)N[C@@H](CO)C(N)=O", "note": "[Example 1]", "values": [{"measurement": "EC50", "setting": "Human GCGR", "result": "> 1000", "unit": "nM"}, {"measurement": "Emax", "setting": "human GIP-R", "result": "97.9 ± 3", "unit": "%"}, {"measurement": "Tmax", "setting": "[1]; sc, single subcutaneous dose 0.2 mg/kg, read-out: time of mean maximum plasma concentration", "result": "~8", "unit": "h"}, {"measurement": "clearance", "setting": "[1]; 0.2 mg/kg single dose", "result": 17.5, "unit": "mL/day/kg"}, {"measurement": "half-life", "setting": "[1]; 0.2 mg/kg single dose, read-out: mean half-life (converted)", "result": 55, "unit": "h"}, {"measurement": "bioavailability", "setting": "[1]; subcutaneous vs intravenous, 0.2 mg/kg", "result": "~83", "unit": "%"}, {"measurement": "Corticosterone, Mean", "setting": "[2]; 3 nmol/kg s.c.", "result": 52.21, "unit": "ng/mL"}, {"measurement": "Corticosterone, Mean", "setting": "[2]; 10 nmol/kg s.c.", "result": 32.46, "unit": "ng/mL"}, {"measurement": "Corticosterone, Mean", "setting": "[2]; 30 nmol/kg s.c.", "result": 31.35, "unit": "ng/mL"}, {"measurement": "increase in plasma corticosterone levels over control", "setting": "[2]; Example 1 at 3, 10, 30 nmol/kg, semaglutide 10 nmol/kg", "result": "no increase in plasma corticosterone levels"}, {"measurement": "Emax", "setting": "human GLP-1R", "result": "85.2 ± 4.4", "unit": "%"}]}
{"smiles": "CC[C@H](C)[C@H](NC(=O)[C@H](CC(C)C)NC(=O)[C@H](Cc1c[nH]c2ccccc12)NC(=O)[C@H](CCC(N)=O)NC(=O)[C@@H](NC(=O)[C@H](Cc1ccccc1)NC(=O)[C@H](C)NC(=O)[C@H](CCCCNC(=O)COCCOCCNC(=O)COCCOCCNC(=O)CC[C@H](NC(=O)CC[C@H](NC(=O)CCCCCCCCCCCCCCCCC(=O)O)C(=O)O)C(=O)O)NC(=O)[C@H](CCC(N)=O)NC(=O)[C@H](C)NC(=O)[C@@H](NC(=O)[C@H](CCCCN)NC(=O)[C@H](CC(=O)O)NC(=O)[C@H](CC(C)C)NC(=O)C(C)(C)NC(=O)[C@@H](NC(=O)[C@H](CO)NC(=O)[C@H](Cc1ccc(O)cc1)NC(=O)[C@H](CC(=O)O)NC(=O)[C@H](CO)NC(=O)[C@@H](NC(=O)[C@H](Cc1ccccc1)NC(=O)[C@@H](NC(=O)CNC(=O)[C@H](CCC(=O)O)NC(=O)C(C)(C)NC(=O)[C@@H](N)Cc1ccc(O)cc1)[C@@H](C)O)[C@@H](C)O)[C@@H](C)CC)[C@@H](C)CC)C(C)C)C(=O)N[C@@H](C)C(=O)NCC(=O)NCC(=O)N1CCC[C@H]1C(=O)N[C@@H](CO)C(=O)N[C@@H](CO)C(=O)NCC(=O)N[C@@H](C)C(=O)N1CCC[C@H]1C(=O)N1CCC[C@H]1C(=O)N1CCC[C@H]1C(=O)N[C@@H](CO)C(N)=O", "note": "[Example 4]", "values": [{"measurement": "EC50", "setting": "Human GCGR", "result": "> 1000", "unit": "nM"}, {"measurement": "EC50", "setting": "mouse islets", "result": 3.5, "unit": "nM"}, {"measurement": "Emax", "setting": "human GLP-1R", "result": "100 ± 5", "unit": "%"}]}
